In this test the target is T1, recombinant human CL receptor/RAMP1 (Homo sapiens, UniProt O60894+Q16602).
T1 construct: expressed in transfected cells; membranes
In words: RECOMBINANT RECEPTOR BINDING ASSAY (125I-hCGRP). To be noted: 125I-hCGRP binding to membranes of HEK 293 cells expressing recombinant human CL receptor/RAMP1; stated as 'generally ... less than about'. The procedure: RECOMBINANT RECEPTOR: Human CL receptor (Genbank accession number L76380) was subcloned into the expression vector pIREShyg2 (BD Biosciences Clontech) as a 5′NheI and 3′ PmeI fragment. Human RAMP1 (Genbank accession number AJ001014) was subcloned into the expression vector pIRESpuro2 (BD Biosciences Clontech) as a 5′NheI and 3′NotI fragment. HEK 293 cells (human embryonic kidney cells; ATCC #CRL-1573) were cultured in DMEM with 4.5 g/L glucose, 1 mM sodium pyruvate and 2 mM glutamine supplemented with 10% fetal bovine serum (FBS), 100 units/mL penicillin and 100 μg/mL streptomycin, and maintained at 37° C. and 95% humidity. Cells were subcultured by treatment with 0.25% trypsin with 0.1% EDTA in HBSS. Stable cell line generation was accomplished by co-transfecting 10 μg of DNA with 30 μg Lipofectamine 2000 (Invitrogen) in 75 cm^2 flasks. CL receptor and RAMP1 expression constructs were co-transfected in equal amounts. Twenty-four hours after transfection the cells were diluted and selective medium (growth medium+300 μg/mL hygromycin and 1 μg/mL puromycin) was added the following day. A clonal cell line was generated by single cell deposition utilizing a FACS Vantage SE (Becton Dickinson). Growth medium was adjusted to 150 μg/mL hygromycin and 0.5 μg/mL puromycin for cell propagation.
RECOMBINANT RECEPTOR BINDING ASSAY: Cells expressing recombinant human CL receptor/RAMP1 were washed with PBS and harvested in harvest buffer containing 50 mM HEPES, 1 mM EDTA and Complete protease inhibitors (Roche). The cell suspension was disrupted with a laboratory homogenizer and centrifuged at 48,000 g to isolate membranes. The pellets were resuspended in harvest buffer plus 250 mM sucrose and stored at −70° C. For binding assays, 20 μg of membranes were incubated in 1 ml binding buffer (10 mM HEPES, pH 7.4, 5 mM MgCl2, and 0.2% BSA) for 3 hours at room temperature containing […] ^125I-hCGRP (GE Healthcare) and antagonist. The assay was terminated by filtration through 96-well GFB glass fiber filter plates (PerkinElmer) that had been blocked with 0.05% polyethyleneimine. The filters were washed 3 times with ice-cold assay buffer (10 mM HEPES, pH 7.4 and 5 mM MgCl2). Scintillation fluid was added and the plates were counted on a Topcount (Packard). Non-specific binding was determined and the data analysis was carried out with the apparent dissociation constant (Ki) determined by using a non-linear least squares fitting the bound CPM data to the equation below:
[formula] […]

This note sets out measurements from patent US8765759B2, “Monocyclic CGRP receptor antagonists” (Merck Sharp & Dohme Corp., priority 2008, dated 2014).

A value given as a limit tells only on which side of the number the result lay.

By Ki is commonly meant the dissociation constant of the complex between target and ligand, obtained from inhibition or displacement.

T1 sequence (Q16602 23-461): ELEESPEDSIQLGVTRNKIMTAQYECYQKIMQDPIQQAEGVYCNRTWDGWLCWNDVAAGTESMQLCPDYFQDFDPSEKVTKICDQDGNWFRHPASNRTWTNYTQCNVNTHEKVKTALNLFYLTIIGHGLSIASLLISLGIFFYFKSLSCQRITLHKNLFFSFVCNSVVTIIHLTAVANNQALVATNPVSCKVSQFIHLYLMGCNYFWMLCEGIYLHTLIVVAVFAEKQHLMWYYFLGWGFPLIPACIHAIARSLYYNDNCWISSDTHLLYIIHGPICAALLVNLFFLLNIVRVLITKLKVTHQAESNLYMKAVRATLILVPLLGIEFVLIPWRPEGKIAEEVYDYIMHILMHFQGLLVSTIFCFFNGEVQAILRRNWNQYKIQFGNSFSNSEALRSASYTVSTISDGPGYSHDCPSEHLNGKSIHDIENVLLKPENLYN
T1 sequence (O60894 27-148): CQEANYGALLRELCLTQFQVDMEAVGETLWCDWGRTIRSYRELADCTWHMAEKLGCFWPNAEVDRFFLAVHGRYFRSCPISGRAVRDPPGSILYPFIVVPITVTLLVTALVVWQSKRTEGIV

On to `CN1C[C@@](C)(c2cc(F)cc(F)c2)N(C/C=C/c2ccc3c(c2)C[C@@]2(C3)C(=O)Nc3ncccc32)C(=O)C12CCCC2` [Example 8], for which the Ki was under 50 µM. The value for `CN1C[C@@](C)(c2cc(F)cc(F)c2)N(CCOc2ccc3c(c2)C[C@@]2(C3)C(=O)Nc3ncccc32)C(=O)C12CCCC2` [Example 15] was under 50 µM. The value for `CN1C[C@@](C)(c2cc(F)cc(F)c2)N(CCCc2ccc3c(c2)C[C@@]2(C3)C(=O)Nc3ncccc32)C(=O)C12CCCC2` [Example 9] was under 50 µM.

Turning to `C[C@@]1(c2cc(F)cc(F)c2)CNC2(CCCC2)C(=O)N1CCOc1ccc2c(c1)C[C@@]1(C2)C(=O)Nc2ncccc21` [Example 13], the inhibition constant Ki was under 50 µM.
